Experiment: solubility of carisbamate in water
Type: physicochemical
Details: described as slightly soluble
Protocol: Carisbamate has been problematic to formulate in an aqueous suspension because it is slightly soluble in water, i.e., more than 2 mg/ml, so that temperature changes can cause the carisbamate particles to dissolve in the aqueous suspension medium and then re-crystallize out on the remaining carisbamate crystals and change the size of the resulting crystals or re crystallize in a different polymorphic form. This change in crystal size or polymorphic form, e.g., from Form A to Form B, can cause an undesirable change in bioavailability of the suspension. The present invention is based in part on the discovery that the addition of hypromellose (hydroxypropyl methyl cellulose or HPMC) in the proper concentration will prevent or stabilize this crystal growth and therefore serve to stabilize the suspension maintaining bioavailability and improving shelf life of the product.

solubility: > 2000 µg/mL
SMILES: NC(=O)OC[C@@H](O)c1ccccc1Cl [Carisbamate, S-(2-(2-chlorophenyl)-2-hydroxyethyl) oxocarboxamide]

Reference: patent US10201519B2, “Stabilized pediatric suspension of carisbamate” (SK BIOPHARMACEUTICALS CO., LTD., priority 2007, dated 2019)
